Measurements from the NIST ThermoML archive (doi:10.1021/je060271a).
“And” between values parts separate entries of the source, which are not always exact repeats. Identical values can stand only once.

Settings: Liquid, Vibrating tube method

CCCCC(=O)OCC(COC(=O)CCCC)(COC(=O)CCCC)COC(=O)CCCC [pentaerythritol tetrapentanoate]
Settings | mass density
283.14 K, 1387.6 kPa | 1027.8 kg/m3
283.14 K, 1404.2 kPa | 1027.9 kg/m3
283.14 K, 1537.6 kPa | 1028 kg/m3
283.14 K, 1581.5 kPa | 1028 kg/m3
283.14 K, 1602.2 kPa | 1028 kg/m3
283.14 K, 7137 kPa | 1031.3 kg/m3
283.14 K, 7155.5 kPa | 1031.2 kg/m3
283.14 K, 7173.8 kPa | 1031.2 kg/m3
283.14 K, 7196.4 kPa | 1031.2 kg/m3
283.14 K, 7215.6 kPa | 1031.3 kg/m3
283.14 K, 7545.3 kPa | 1031.5 kg/m3
283.14 K, 7570.8 kPa | 1031.5 kg/m3
283.14 K, 7613.2 kPa | 1031.4 kg/m3
283.14 K, 7932.2 kPa | 1031.7 kg/m3
283.14 K, 7959.6 kPa | 1031.7 kg/m3
283.14 K, 7982.3 kPa | 1031.7 kg/m3
283.14 K, 8033 kPa | 1031.8 kg/m3
283.14 K, 8056.3 kPa | 1031.7 kg/m3
283.14 K, 8103.7 kPa | 1031.7 kg/m3
283.14 K, 8185.7 kPa | 1031.9 kg/m3
283.14 K, 9062.7 kPa | 1032.4 kg/m3
283.14 K, 9128.2 kPa | 1032.3 kg/m3
283.14 K, 9352.3 kPa | 1032.5 kg/m3
283.14 K, 9390.6 kPa | 1032.6 kg/m3
283.14 K, 9422.3 kPa | 1032.5 kg/m3
283.14 K, 9460.6 kPa | 1032.5 kg/m3
283.14 K, 9493.3 kPa | 1032.5 kg/m3
283.14 K, 9525.9 kPa | 1032.5 kg/m3
283.14 K, 9558.8 kPa | 1032.6 kg/m3
283.14 K, 10081 kPa | 1032.9 kg/m3
283.14 K, 10162 kPa | 1032.9 kg/m3
283.14 K, 11953 kPa | 1034 kg/m3
283.15 K, 105.8 kPa | 1027.1 kg/m3
283.15 K, 106 kPa | 1027.1 kg/m3 and 1027.2 kg/m3
283.15 K, 106.2 kPa | 1027.2 kg/m3 and 1027.1 kg/m3 and 1027 kg/m3
283.15 K, 106.3 kPa | 1027.2 kg/m3
283.15 K, 106.7 kPa | 1027.2 kg/m3
283.15 K, 107.6 kPa | 1027.1 kg/m3
283.15 K, 108.1 kPa | 1027.1 kg/m3
283.15 K, 109.5 kPa | 1027 kg/m3
283.15 K, 111.9 kPa | 1027.2 kg/m3
283.15 K, 117.3 kPa | 1027.1 kg/m3
283.15 K, 124.3 kPa | 1027.1 kg/m3
283.15 K, 130.2 kPa | 1027.2 kg/m3
283.15 K, 135 kPa | 1027.1 kg/m3
283.15 K, 140.8 kPa | 1027.1 kg/m3
283.15 K, 147.2 kPa | 1027.1 kg/m3
283.15 K, 154.9 kPa | 1027.1 kg/m3
283.15 K, 163.9 kPa | 1027.1 kg/m3
283.15 K, 178 kPa | 1027.2 kg/m3
283.15 K, 192.4 kPa | 1027.1 kg/m3
283.15 K, 213.6 kPa | 1027.1 kg/m3
283.15 K, 233.4 kPa | 1027.1 kg/m3
283.15 K, 247.7 kPa | 1027.2 kg/m3
283.15 K, 264 kPa | 1027.2 kg/m3
283.15 K, 279.7 kPa | 1027.1 kg/m3
283.15 K, 296.5 kPa | 1027.1 kg/m3
283.15 K, 313.2 kPa | 1027.2 kg/m3
283.15 K, 332 kPa | 1027.2 kg/m3
283.15 K, 349 kPa | 1027.3 kg/m3
283.15 K, 368.1 kPa | 1027.2 kg/m3
283.15 K, 391.4 kPa | 1027.3 kg/m3
283.15 K, 406.5 kPa | 1027.2 kg/m3
283.15 K, 423.1 kPa | 1027.4 kg/m3
283.15 K, 437.7 kPa | 1027.3 kg/m3
283.15 K, 452.6 kPa | 1027.3 kg/m3
283.15 K, 469.3 kPa | 1027.3 kg/m3
283.15 K, 482.3 kPa | 1027.4 kg/m3
283.15 K, 495.9 kPa | 1027.3 kg/m3
283.15 K, 512.7 kPa | 1027.3 kg/m3
283.15 K, 528.4 kPa | 1027.4 kg/m3
283.15 K, 544.4 kPa | 1027.4 kg/m3
283.15 K, 563 kPa | 1027.2 kg/m3
283.15 K, 579.3 kPa | 1027.3 kg/m3
283.15 K, 596.9 kPa | 1027.5 kg/m3
283.15 K, 618.9 kPa | 1027.3 kg/m3
283.15 K, 638.7 kPa | 1027.4 kg/m3
283.15 K, 659.6 kPa | 1027.5 kg/m3
283.15 K, 682 kPa | 1027.5 kg/m3
283.15 K, 710.3 kPa | 1027.4 kg/m3
